Measurements taken from ChEMBL document CHEMBL1201862, “PubChem BioAssay data set” (2004).
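Results reflect a 48-hour exposure of cells in 96-well plates to compound at five concentrations. Here, GI50 denotes the concentration required for 50% inhibition of growth.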 Activity calls are given as the source filed them. Cut-off read from the data, not from the text of the source: active = GI50 up to about 1.1 µM and inactive = higher.

Tests used:
Assay in all cases: NCI anticancer screen, dose series, 48 h
OVCAR-3 = system: OVCAR-3
HOP-18 = system: HOP-18
A549 = system: A549
XF498 = system: XF498
SK-OV-3 = system: SK-OV-3
CAKI-1 = system: CAKI-1
SF-539 = system: SF-539
OVCAR-8 = system: OVCAR-8
LOX IMVI = system: LOX IMVI
UO-31 = system: UO-31
HL-60 = system: HL-60
UACC-62 = system: UACC-62
HCT-15 = system: HCT-15
SK-MEL-5 = system: SK-MEL-5
HOP-92 = system: HOP-92
HCC 2998 = system: HCC 2998
786-0 = system: 786-0
EKVX = system: EKVX
SW-620 = system: SW-620
M19-MEL = system: M19-MEL
LXFL 529 = system: LXFL 529
SK-MEL-28 = system: SK-MEL-28
MOLT-4 = system: MOLT-4
COLO 205 = system: COLO 205
SN12C = system: SN12C
SNB-19 = system: SNB-19
HCT-116 = system: HCT-116
HT-29 = system: HT-29
SR = system: SR
ACHN = system: ACHN
IGROV-1 = system: IGROV-1
SNB-78 = system: SNB-78
RXF 393 = system: RXF 393
OVCAR-4 = system: OVCAR-4
SNB-75 = system: SNB-75
NCI-H226 = system: NCI-H226
Malme-3M = system: Malme-3M
KM12 = system: KM12
HOP-62 = system: HOP-62
OVCAR-5 = system: OVCAR-5
DLD-1 = system: DLD-1
NCI-H23 = system: NCI-H23
CCRF-CEM = system: CCRF-CEM
UACC-257 = system: UACC-257
DMS-273 = system: DMS-273
KM-20L2 = system: KM-20L2
K562 = system: K562
TK-10 = system: TK-10
SF-268 = system: SF-268
NCI-H522 = system: NCI-H522
U-251 = system: U-251
M14 = system: M14
RPMI-8226 = system: RPMI-8226
NCI-H460 = system: NCI-H460
SF-295 = system: SF-295
A498 = system: A498
SK-MEL-2 = system: SK-MEL-2
DMS-114 = system: DMS-114

Measured: GI50

O=C(/C=C/c1ccccc1)Oc1cccc2cccnc12
active: NCI-H522 1.09 µM
inactive: OVCAR-3 2.96 µM | HOP-18 25.8 µM | A549 12.9 µM | XF498 11.3 µM | SK-OV-3 41.1 µM | CAKI-1 32 µM | SF-539 3.93 µM | OVCAR-8 4.02 µM | LOX IMVI 9.64 µM | UO-31 6.35 µM | HL-60 3.01 µM | UACC-62 5.47 µM | SK-MEL-5 7.74 µM | HOP-92 17.5 µM | HCC 2998 43.2 µM | 786-0 > 44.4 µM | EKVX 6.65 µM | SW-620 3.82 µM | M19-MEL 13.2 µM | LXFL 529 4.06 µM | SK-MEL-28 16.4 µM | MOLT-4 3.2 µM | COLO 205 14.5 µM | SN12C 3.97 µM | SNB-19 31.4 µM | HCT-116 3.33 µM | HT-29 7.93 µM | SR 1.57 µM | ACHN 20.3 µM | IGROV-1 11.2 µM | SNB-78 21 µM | RXF 393 21.1 µM | OVCAR-4 6.87 µM | SNB-75 14.3 µM | NCI-H226 26.7 µM | Malme-3M 3.8 µM | KM12 8.39 µM | HOP-62 21.2 µM | OVCAR-5 14.7 µM | DLD-1 4.37 µM | NCI-H23 3.72 µM | CCRF-CEM 3.18 µM | UACC-257 2.88 µM | DMS-273 23 µM | KM-20L2 2.2 µM | K562 3.85 µM | TK-10 > 84.5 µM | SF-268 2.23 µM | U-251 4.71 µM | M14 4.11 µM | RPMI-8226 4.38 µM | NCI-H460 3.62 µM | SF-295 8.28 µM
6.17 µM: HCT-15

O=C1OCC/C1=N/O
> 100 µM: HCT-15
inactive: OVCAR-3 > 100 µM | HOP-18 > 100 µM | A549 > 100 µM | SK-OV-3 > 100 µM | SF-539 > 100 µM | OVCAR-8 > 100 µM | UO-31 > 100 µM | HL-60 > 100 µM | UACC-62 > 100 µM | SK-MEL-5 > 100 µM | HOP-92 > 100 µM | HCC 2998 > 100 µM | 786-0 > 100 µM | A498 > 100 µM | EKVX > 100 µM | SW-620 > 100 µM | M19-MEL > 100 µM | LXFL 529 > 100 µM | SK-MEL-28 > 100 µM | MOLT-4 > 100 µM | COLO 205 > 100 µM | SN12C > 100 µM | HCT-116 > 100 µM | HT-29 > 100 µM | SR > 100 µM | ACHN > 100 µM | IGROV-1 > 100 µM | SNB-78 > 100 µM | SK-MEL-2 > 100 µM | RXF 393 > 100 µM | OVCAR-4 > 100 µM | SNB-75 > 100 µM | NCI-H226 > 100 µM | Malme-3M > 100 µM | KM12 > 100 µM | OVCAR-5 > 100 µM | DLD-1 > 100 µM | NCI-H23 > 100 µM | CCRF-CEM > 100 µM | UACC-257 > 100 µM | DMS-273 > 100 µM | DMS-114 > 100 µM | KM-20L2 > 100 µM | K562 > 100 µM | TK-10 > 100 µM | SF-268 > 100 µM | NCI-H522 > 100 µM | U-251 > 100 µM | M14 > 100 µM | RPMI-8226 > 100 µM | NCI-H460 > 100 µM | SF-295 > 100 µM
